Data on 2 molecules can be found in patent publication US12042520B2 (SOLUVEG SA, priority 2015, dated 2024).

Series [1] can be described thus: Curcumin plasma concentration after intravenous administration in the pig (for comparison). In kind it is in vivo. To be noted: 0.60 grams for 23 kg.
The conditions of series [2]: piperine used with curcumin; cited from earlier work.

Consider `COc1cc(/C=C/C(=O)CC(=O)/C=C/c2ccc(O)c(OC)c2)ccc1O` [Curcumin, curcumin], for which, in series [1], the “Time for which the plasma concentration remains at a constant level” value worked out at 10 h and the “Time of plasma concentration peak” value came to 24 h. In addition, in series [1] (plasma, 0.6 grams for 23 kg of live weight, 0 hours), the concentration at 0 hours turned out to be 0 ng/mL. Further, the concentration at 3 hours in series [1] (plasma, 0.6 grams for 23 kg of live weight, 3 hours) was determined as 537 ng/mL. Moreover, in series [1] (plasma, 0.6 grams for 23 kg of live weight, 6 hours), the concentration at 6 hours worked out at 557 ng/mL. For the same molecule, the concentration at 9 hours in series [1] (plasma, 0.6 grams for 23 kg of live weight, 9 hours) was determined as 713 ng/mL. Moreover, the concentration at 24 hours in series [1] (plasma, 0.6 grams for 23 kg of live weight, 24 hours) is 724 ng/mL. Besides, the concentration at 48 hours in series [1] (plasma, 0.6 grams for 23 kg of live weight, 48 hours) turned out to be 537 ng/mL. The molecule also had a concentration at 72 hours in series [1] (plasma, 0.6 grams for 23 kg of live weight, 72 hours) of 385 ng/mL.

As to `O=C(/C=C/C=C/c1ccc2c(c1)OCO2)N1CCCCC1` [piperine], the “Effect in the intestine (in words)” value in series [2] is given as “irritating effect in the intestine”.
